Laboratory results: article PMC11527646, “Pharmacological blockade of the mast cell MRGPRX2 receptor supports investigation of its relevance in skin disorders” (Frontiers in Immunology, 2024)
pEC50, pIC50: −log10 of the molar value.

How the values were obtained:
Format in all cases: cell-based
[1] = test system: dog MRGPRX2 (beagle & boxer); experiment: Calcium mobilization in BacMam-transduced U2OS cells
Description: (§1) Cell culture reagents were purchased from Thermo Fisher Scientific unless otherwise stated. The LAD2 human mast cell line was in-licensed from National Institutes of Health (NIH) and routinely cultured in StemPro™-34 SFM with nutrient supplement, 1× GlutaMax™, and recombinant human SCF (100 ng/mL). HEK293-MRGPRX2/Gα15 cells were cultured in DMEM containing 10% FBS. The parental U2OS cells were culture in DMEM/F-12 containing 10% FBS. BacMam virus containing human MRGPRX2 gene or animal orthologs [mouse Mrgprb2 (Gene ID: 243979), rat Mrgprb3 (Gene ID: 691194), dog MRGPRX2 (Gene ID: 102125889), cynomolgus monkey MRGPRX2 (Gene ID: 692078), and rhesus monkey MRGPRX2] were used to transduce U2OS cells for transient expression.
(§2) Supplemental Table 1: Compound A and Compound B are human MRGPRX2 selective antagonists. Antagonist and agonist activities of the two compounds were determined in calcium mobilization assays for human MRGPRX2 and its animal orthologs from various species. The activities were measured in […] (Molecular Devices) instrument using U2OS cells transduced with BacMam virus for transient expression of the relevant receptors. Data are presented as mean ± SEM when applicable.
(§3) Compound A and Compound B up to the highest concentration (100 µM) tested. In the antagonist […]
(§4) Compound A and B, respectively. […]
(§5) Taking together, […]

[2] = molecular target: T1, mouse MrgB2 (Mus musculus, UniProt Q3KNA1); experiment: as above
T1 construct: expressed in transfected cells; host or cells: U2OS transduced with BacMam virus
T1 sequence (Q3KNA1 whole entry): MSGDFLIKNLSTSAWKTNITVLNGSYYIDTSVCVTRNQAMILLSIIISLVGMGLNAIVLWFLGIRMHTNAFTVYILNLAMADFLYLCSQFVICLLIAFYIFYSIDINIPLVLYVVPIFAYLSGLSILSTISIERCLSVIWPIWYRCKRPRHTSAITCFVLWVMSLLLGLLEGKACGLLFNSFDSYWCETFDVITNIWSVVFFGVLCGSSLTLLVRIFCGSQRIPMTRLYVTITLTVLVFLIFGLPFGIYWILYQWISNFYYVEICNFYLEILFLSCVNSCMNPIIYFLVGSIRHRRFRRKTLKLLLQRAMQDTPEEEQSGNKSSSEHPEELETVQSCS
Description: as §1, §2, §3, §4, §5

[3] = test system: rat MrgB3; experiment: as above
Description: as §1, §2, §3, §4, §5

[4] = molecular target: T2, A2A receptor (ADORA2A) (Homo sapiens, UniProt P29274); experiment: GPCR selectivity cellular assay; conditions: Agonism; read-out: Agonist Activity (EC50)
T2 construct: expressed in transfected cells
T2 sequence (P29274 whole entry): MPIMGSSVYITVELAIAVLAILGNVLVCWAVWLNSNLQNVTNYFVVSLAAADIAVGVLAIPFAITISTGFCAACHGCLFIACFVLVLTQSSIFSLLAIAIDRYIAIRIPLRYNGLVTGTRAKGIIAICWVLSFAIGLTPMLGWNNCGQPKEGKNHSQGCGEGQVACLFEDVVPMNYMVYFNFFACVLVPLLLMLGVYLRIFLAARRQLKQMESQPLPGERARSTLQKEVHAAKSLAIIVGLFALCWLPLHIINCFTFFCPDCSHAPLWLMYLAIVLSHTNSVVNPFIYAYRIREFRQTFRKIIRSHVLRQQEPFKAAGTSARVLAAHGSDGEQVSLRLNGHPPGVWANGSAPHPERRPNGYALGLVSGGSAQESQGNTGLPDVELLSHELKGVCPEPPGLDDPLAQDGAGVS

[5] = molecular target: T3, M2 receptor (CHRM2) (Homo sapiens, UniProt P08172); experiment: GPCR selectivity cellular assay; conditions: for pEC50: Agonism, read-out: Agonist Activity (EC50); for pIC50: Antagonism, read-out: Antagonist Activity (IC50)
T3 construct: expressed in transfected cells
T3 sequence (P08172 1-466): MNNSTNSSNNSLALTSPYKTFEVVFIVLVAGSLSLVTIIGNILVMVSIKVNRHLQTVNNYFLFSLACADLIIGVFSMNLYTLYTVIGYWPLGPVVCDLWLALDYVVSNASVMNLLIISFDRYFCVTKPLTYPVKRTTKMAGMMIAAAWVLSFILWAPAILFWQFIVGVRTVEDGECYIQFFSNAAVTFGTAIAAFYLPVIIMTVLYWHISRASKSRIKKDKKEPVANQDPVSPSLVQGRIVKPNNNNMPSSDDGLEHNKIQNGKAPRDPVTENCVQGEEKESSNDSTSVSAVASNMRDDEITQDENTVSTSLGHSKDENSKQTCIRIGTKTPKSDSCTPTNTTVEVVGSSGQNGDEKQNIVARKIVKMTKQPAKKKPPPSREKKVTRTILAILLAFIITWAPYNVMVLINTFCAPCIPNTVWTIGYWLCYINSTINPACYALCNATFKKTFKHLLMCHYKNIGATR
Description: tagonists, with little activity detected on other GPCRs. Antagonist and/or agonist activities of the two compounds were determined in cellular assays for 20 human G-protein coupled receptors (GPCR) beside MRGPRX2. Recombinant over-expression systems in mammalian cells were used for all assays listed in this table. […]
reported as ‘>’ the highest compound concentration allowed in that assay.
GPCR Target Name Gene symbol Mode of Activity Compound-A Compound-B […]
Agonist Activity (EC50 ) or Antagonist Activity (IC50 ), nM […]

[6] = molecular target: T4, MRGPRX2 (Homo sapiens, UniProt Q96LB1); experiment: Ca2+ mobilization assay (FLIPR TETRA) in HEK293-MRGPRX2/Gα15 cells; parameters: expressed in transfected cells; conditions: for pEC50: agonist mode, highest concentration tested 30 μM, read-out: Activation of Ca2+ Mobilization EC50
T4 sequence (Q96LB1 1-330): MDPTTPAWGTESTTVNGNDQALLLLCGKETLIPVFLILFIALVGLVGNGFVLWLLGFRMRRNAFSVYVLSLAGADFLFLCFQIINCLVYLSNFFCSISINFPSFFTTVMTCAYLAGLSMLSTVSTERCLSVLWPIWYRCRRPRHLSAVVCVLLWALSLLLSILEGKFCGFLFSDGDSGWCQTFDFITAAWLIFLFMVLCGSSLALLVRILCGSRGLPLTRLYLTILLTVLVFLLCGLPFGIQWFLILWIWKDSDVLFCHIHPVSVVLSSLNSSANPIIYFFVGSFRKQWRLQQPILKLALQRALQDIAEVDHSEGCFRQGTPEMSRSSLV
Description: A Ca^2+ mobilization assay was used to screen for small-molecule compounds with agonist or antagonist activity against human MRGPRX2 using HEK293-MRGPRX2/Gα15 cells. Two million small-molecule compounds in GSK collection were screened at single concentration of 10 μM on FLIPR^TETRA (Molecular Devices) instruments in dual detection mode for both activation and inhibition activities. Cortistatin 14 at approximately EC80 concentration was used as the activation ligand for the inhibition phase of the high-throughput screening. Compounds of interest were followed up and characterized in concentration response curves to determine their mode of activity, potency, and selectivity.
Figure 1 Identification of two structurally distinct MRGPRX2 antagonists: Compound (A) and Compound (B). Calcium mobilization assays were performed in FLIPR^TETRA (Molecular Devices) with two novel MRGPRX2 antagonists using HEK293 cells overexpressing MRGPRX2 and Gα15 proteins. […] Dose-dependent inhibition (A) of Cortistatin 14–mediated MRGPRX2 activation was measured, and antagonist potencies (B) are presented as mean ± SEM of 66 or 22 independent experiments for Compound A and Compound B, respectively.

[7] = molecular target: T4, MRGPRX2; experiment: Calcium mobilization (FLIPR TETRA) in BacMam-transduced U2OS cells; parameters: expressed in transfected cells; host or cells: U2OS transduced with BacMam virus; Agonist activity: dose or concentration left out as unconfirmed; conditions: for Agonist activity: up to the highest concentration tested
Description: as §1, §2, §3, §4

Compound	Agonist and antagonist activity [1]	Agonist and antagonist activity [2]	Agonist and antagonist activity [3]	pEC50 [4]	pEC50 [5]	pIC50 [5]	pIC50 [6]	pEC50 [6]	pIC50 [7]	Agonist activity [7]	pIC50 ([6]; Cortistatin 14 at approx. EC80, mean ± SEM of 66 (Compound A) or 22 (Compound B) experiments, read-out: Inhibition of Cort-14 Mediated MRGPRX2 Activation IC50)	pIC50 ([7]; Cortistatin 14 at approx. EC80, U2OS cells, read-out: Antagonist IC50 against Cortistatin 14)
CC1(C)C(C(=O)Nc2ccccn2)C1(C)C [Compound A]	No agonist nor antagonist activity	No agonist nor antagonist activity	No agonist nor antagonist activity	< 4.00	< 4.30	< 4.30	7.30	< 4.52	7.35	No agonist activity was detected		
C[C@@H](C(=O)Nc1cnc(Oc2ccc(F)cc2F)cn1)N1CCC(F)(F)[C@@H](c2cc[n+]([O-])cc2)C1 [Compound B]	No agonist nor antagonist activity	No agonist nor antagonist activity	No agonist nor antagonist activity	< 4.00	< 4.30	< 4.30		< 4.52		No agonist activity was detected	8.54	8.44
